This is an account of results in patent publication US8518956B2, “1-(1-(2-ethoxyethyl)-3-ethyl-7-(4-methylpyridin-2-ylamino)-1H-pyrazolo[4,3-d]pyrimidin-5-yl) piperidine-4-carboxylic acid and salts thereof” (priority 2005, dated 2013).

The subject of data set [1] is Chinese hamster ovary (CHO) cells. Nature of the data set: Method 7: Micronucleus Assay. Type of data set: cell-based. As to conditions: in vitro, with and without S9. The procedure:
Method 7: Micronucleus Assay
An in vitro micronucleus assay can be used to determine the mutagenic potential of a test compound. This assay detects chromosome abnormalities resulting from exposure to a test compound by measuring the formation of small membrane-bound DNA fragments such as micronuclei in the cytoplasm of interphase cells.
The assay is conducted using Chinese hamster ovary (CHO) cells under different test conditions in the absence and presence of metabolic activation. Concordance in outcomes between this screening assay and in vitro cytogenetics is around 85%. Direct (−S9) testing is conducted using 24 hour or 3 hour continuous treatments, whereas testing with metabolic activation (+S9) involves a 3 hour treatment. Clastogenicity is indicated by an increase in numbers of micronucleated cells in the first interphase after exposure (in cytokinesis-blocked binucleated cells). The results are compared to the level of cytotoxicity (measured by the proportion of binucleated cells) a test compound produces. […] A test compound displaying a negative response has not fulfilled specific evaluation criteria for the assay which may include one or both of the following: 1) a reproducible concentration dependent increase in the specific assay endpoint when compared to a negative (vehicle) control and/or 2) one or more test concentrations achieving a minimum fold increase in the specific endpoint over controls. • Positive—A positive result identifies a genotoxic hazard defined by the assays specific endpoint (ex. positive in vitro micronucleus). A test compound displaying a positive response has fulfilled specific evaluation criteria for the assay which may include one or both of the following: 1) a reproducible concentration dependent increase in the specific assay endpoint when compared to a negative (vehicle) control and/or 2) one or more test concentrations achieving a minimum fold increase in the specific endpoint over controls. • Equivocal—An equivocal result is reserved for situations where the test compound has been evaluated in a valid assay test or tests (i.e. assay acceptability criteria satisfactory), but fails to display a negative or positive result as defined by established evaluation criteria. This may convey the presence of a weak positive response that requires additional repeat testing or eventual confirmatory testing case-by-case. • Inconclusive—An inconclusive result is reserved for situations where the test compound has been evaluated in an invalid assay test (i.e. assay acceptability criteria unsatisfactory for technical reasons, ex. negative or positive controls fail to respond appropriately). Repeat testing is recommended in order to establish a valid assay test result.

Data set [2] is described as follows: Method 11: Single Dose Pharmacokinetics and Oral Bioavailability in Male Sprague-Dawley Rat. Type of data set: in vivo. As to conditions: mean. Here is the method:
Repeat testing is recommended in order to establish a valid assay test result. P. Pharmacokinetic/Pharmacodynamic Study Method 11: Single Dose Pharmacokinetics and Oral Bioavailability in Male Sprague-Dawley Rat Following Intravenous and Oral Administration
An in vivo model can be used to evaluate the single dose pharmacokinetic properties and absolute oral bioavailability of a test compound. As described more specifically below, a test compound is administered to Sprague-Dawley (SD) rats either intravenously or orally in a crossover study design and the resulting pharmacokinetic properties and oral bioavailability are measured.
Male rats are administered a 2.0 mg/kg dose orally (n=2) by gavage as a suspension (0.5% methylcellulose/0.1% Tween 80 in distilled water). After a 72 hour wash-out periond, the same rats were administered 2.0 mg/kg dose bolus intravenously (n=2) as a solution (70% PEG 400/20% 0.05 M Citrate Buffer pH 3/10% Ethanol). Serial blood samples (for plasma) are collected from each rat over a 24 hour post dose for each route. […] Pharmacokinetic parameters of a test compound are determined from the plasma concentration-time data using non-compartmental methods. • LC/MS/MS: 1) Column: Hyperso; AQUASIL C-18 2.1×20 mm, 3.0 μm; 2) Mobile phase: Aqueous Water with 0.1% Formic Acid, Orgainic: Acetonitrile; Ionization: +ESI (API 4000). MRM: m/z 494.4→m/z 394.0 (Example 261 in WO2004096810), m/z 509.44→m/z 409.80 (Example 263 in WO2004096810), m/z 495.33→m/z 395.20 (Example 262 in WO2004096810). The detection limits are 0.12 ng/mL (Example 261 in WO2004096810), 1.3 ng/mL (Example 263 in WO2004096810) and 0.11 ng/mL (Example 262 in WO2004096810).
Watson (Version 6.4.0.04) is used to calculate mean test compound concentrations, corresponding standard deviations (SD), and percent coefficient of variation (% CV), and to estimate pharmacokinetic parameters (derived by noncompartmental methods) and associated statistics (mean, SD & CV %) if applicable. (Since n=2, no SD or CV calculated ?). Concentrations below the limit of quantitation (BLQ) are reported as zero (0) and are used in the evaluation of mean concentrations and the estimation of AUC. The peak plasma concentration (Cmax) and the time to reach peak concentration (tmax) are recorded directly from individual plasma concentration-time profiles. The terminal log-linear phase of the plasma concentration-time curve is identified by linear regression of data points. The terminal half-life (t1/2) is calculated as ln(2) divided by absolute value of the slope of the terminal log-linear phase. The area under the plasma concentration-time curve from time zero to time of the last quantifiable concentration (t) [AUC(0-t)] is determined using the linear trapezoidal method. The area under the plasma concentration-time curve from time zero to infinity [AUC(0-∞)] is determined as AUC(0-t) plus the extrapolated area. The extrapolated area is determined by dividing the last observed plasma concentration by the slope of the terminal log-linear phase. Systemic plasma clearance (CL) is calculated as dose/AUC(0-∞) while the volume of distribution at steady state (Vdss) is calculated as CL×MRT, where MRT (mean residence time) is defined as AUMC(0-∞)/AUC(0-∞). The absolute PO bioavailability (F) is calculated as a ratio of the dose-normalized AUC(0-∞) of individual animal after PO administration to the dose-normalized AUC(0-∞) of individual animal after IV administration given the crossover study design.

The subject of data set [3] is spontaneously hypertensive rats (SHR). The data set can be described thus: Method 12: SHR Rat Combination Therapy, blood pressure by telemetry. Type of data set: in vivo. As to conditions: 1 mg/kg once daily oral.
A further data set concerns urinary cGMP. Nature of the data set: Method 12: SHR Rat Combination Therapy, urinary cGMP mechanistic biomarker. Format: in vivo. The settings on record: 0-24 hour urine collection on day 9.

Turning to `CCOCCn1nc(CC)c2nc(N3CCC(C(=O)O)CC3)nc(Nc3cc(C)ccn3)c21` [Carboxypiperidine Compound, 1-(1-(2-ethoxyethyl)-3-ethyl-7-(4-methylpyridin-2-ylamino)-1H-pyrazolo[4,3-d]pyrimidin-5-yl)piperidine-4-carboxylic acid], in data set [1], the “METHOD 7: MI[…]” value is “equivocal”. In data set [2] (plasma, iv, 2 mg/kg), the total exposure AUC(0-inf) was 17500 ng·h/mL. Further, the Vd in data set [2] (plasma, iv, 2 mg/kg, read-out: Vdss) came to 0.715 L/kg. Further, in data set [2] (plasma, po, 2 mg/kg), the area under the curve AUC(0-inf) is 9070 ± 2300 ng·h/mL, the Cmax is 1360 ± 216 ng/mL and the Tmax is 30 ± 12 min. In addition, the F in data set [2] (po 2 mg/kg vs iv 2 mg/kg) is reported as 51.8 ± 13.1%. In addition, in data set [3] (day 1), the “reduction of blood pressure from pre-dose baseline in comparison to vehicle treated group” value is 11±1 mmHg. In addition, the “reduction of blood pressure below pre-dose baseline” value in data set [3] (day 7) stood at 9±1 mmHg. For the same compound, the “urinary cGMP in comparison to vehicle treated group” value in the data set on urinary cGMP was “elevated”.
